These results are taken from patent publication US12391648B2, “Pyridyloxy thioester derivative and preparation method therefor, herbicidal composition, and application” (Qingdao Kingagroot Chemical Compound Co., Ltd., priority 2018, dated 2025).

Common to all, as to assay: Post-emergence test experiment (Table 3, 1000 g/ha)
Common to all, as to assay type: in vivo
What all share (conditions): post-emergence spray, after 3 weeks, fresh weight inhibition

The subject of one test is Abutilon theophrasti. In outline: (§1)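 Weed seeds sown in soil-filled pots in greenhouse, sprayed at 2-3 leaf stage (2 weeks after sowing) with compound in acetone/tween-80 plus methyl oleate emulsible concentrate (1.5 L/ha) diluted in water. Fresh-weight growth inhibition scored after 3 weeks on 0-5 scale (5: >85%, 0: <5%).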
The test system of the next test is Digitaria sanguinalis. In outline:
as §1

A further test relates to Galium spurium. In outline:
as §1

In another test the test system is Leptochloa chinensis. The method, boiled down: as §1
The test system of the next test is Monochoria vaginalis. In outline: as §1
The subject of the next test is Setaria viridis. In outline:
as §1

As for `CC(Oc1nc(F)c(Cl)c(N)c1Cl)C(=O)SCC(=O)N(C)C` (stereo not drawn) [Compound 99], in the test on Abutilon theophrasti, the “Activity level (growth inhibition rate) Abutilon theophrasti” value is reported as 5 (Level 5: the growth inhibition rate is greater than 85%). Moreover, the “Activity level (growth inhibition rate) Digitaria sanguinalis” value in the test on Digitaria sanguinalis was 5 (Level 5: the growth inhibition rate is greater than 85%). Moreover, in the test with Galium spurium, the “Activity level (growth inhibition rate) Galium spurium” value is given as 5 (Level 5: the growth inhibition rate is greater than 85%). Besides, the “Activity level (growth inhibition rate) Leptochloa chinensis” value in the test with Leptochloa chinensis is recorded as 5 (Level 5: the growth inhibition rate is greater than 85%). Also, the “Activity level (growth inhibition rate) Monochoria Vaginalis” value with Monochoria vaginalis is on record as 5 (Level 5: the growth inhibition rate is greater than 85%). Moreover, the “Activity level (growth inhibition rate) Setaria viridis” value in the test with Setaria viridis was 5 (Level 5: the growth inhibition rate is greater than 85%).
For `CC(Oc1nc(F)c(Cl)c(N)c1Cl)C(=O)SC(N)=O` (stereo not drawn) [Compound 100], in the test on Abutilon theophrasti, the “Activity level (growth inhibition rate) Abutilon theophrasti” value is given as 5 (Level 5: the growth inhibition rate is greater than 85%). Further, in the test with Digitaria sanguinalis, the “Activity level (growth inhibition rate) Digitaria sanguinalis” value was 5 (Level 5: the growth inhibition rate is greater than 85%). Besides, the “Activity level (growth inhibition rate) Galium spurium” value in the test on Galium spurium is given as 5 (Level 5: the growth inhibition rate is greater than 85%). Moreover, the “Activity level (growth inhibition rate) Leptochloa chinensis” value in the test with Leptochloa chinensis is 5 (Level 5: the growth inhibition rate is greater than 85%). For the same compound, the “Activity level (growth inhibition rate) Monochoria Vaginalis” value with Monochoria vaginalis is recorded as 5 (Level 5: the growth inhibition rate is greater than 85%). In addition, in the test with Setaria viridis, the “Activity level (growth inhibition rate) Setaria viridis” value is reported as 5 (Level 5: the growth inhibition rate is greater than 85%).
Take `CCOC(=O)SC(=O)C(C)Oc1nc(F)c(Cl)c(N)c1Cl` (stereo not drawn) [Compound 101]: the “Activity level (growth inhibition rate) Abutilon theophrasti” value in the test on Abutilon theophrasti is recorded as 5 (Level 5: the growth inhibition rate is greater than 85%). The “Activity level (growth inhibition rate) Digitaria sanguinalis” value with Digitaria sanguinalis is reported as 5 (Level 5: the growth inhibition rate is greater than 85%). In the test on Galium spurium, the “Activity level (growth inhibition rate) Galium spurium” value is listed as 5 (Level 5: the growth inhibition rate is greater than 85%). For the same compound, the “Activity level (growth inhibition rate) Leptochloa chinensis” value with Leptochloa chinensis is reported as 5 (Level 5: the growth inhibition rate is greater than 85%). For the same compound, the “Activity level (growth inhibition rate) Monochoria Vaginalis” value in the test on Monochoria vaginalis is 5 (Level 5: the growth inhibition rate is greater than 85%). Moreover, the “Activity level (growth inhibition rate) Setaria viridis” value in the test with Setaria viridis is on record as 5 (Level 5: the growth inhibition rate is greater than 85%).
With `CC(C)=NSC(=O)C(C)Oc1nc(F)c(Cl)c(N)c1Cl` (stereo not drawn) [Compound 102], in the test on Abutilon theophrasti, the “Activity level (growth inhibition rate) Abutilon theophrasti” value is on record as 5 (Level 5: the growth inhibition rate is greater than 85%). The “Activity level (growth inhibition rate) Digitaria sanguinalis” value with Digitaria sanguinalis was 5 (Level 5: the growth inhibition rate is greater than 85%). In addition, the “Activity level (growth inhibition rate) Galium spurium” value in the test with Galium spurium is 5 (Level 5: the growth inhibition rate is greater than 85%). For the same compound, the “Activity level (growth inhibition rate) Leptochloa chinensis” value in the test on Leptochloa chinensis is listed as 5 (Level 5: the growth inhibition rate is greater than 85%). Also, the “Activity level (growth inhibition rate) Monochoria Vaginalis” value with Monochoria vaginalis is listed as 5 (Level 5: the growth inhibition rate is greater than 85%). In addition, in the test with Setaria viridis, the “Activity level (growth inhibition rate) Setaria viridis” value is given as 5 (Level 5: the growth inhibition rate is greater than 85%).
In the case of `CC(Oc1nc(F)c(Cl)c(N)c1Cl)C(=O)SC(N)C(=O)O` (stereo not drawn) [Compound 103], the “Activity level (growth inhibition rate) Abutilon theophrasti” value with Abutilon theophrasti was 5 (Level 5: the growth inhibition rate is greater than 85%). The “Activity level (growth inhibition rate) Digitaria sanguinalis” value in the test with Digitaria sanguinalis is 5 (Level 5: the growth inhibition rate is greater than 85%). For the same compound, the “Activity level (growth inhibition rate) Galium spurium” value in the test on Galium spurium was 5 (Level 5: the growth inhibition rate is greater than 85%). For the same compound, the “Activity level (growth inhibition rate) Leptochloa chinensis” value with Leptochloa chinensis is given as 5 (Level 5: the growth inhibition rate is greater than 85%). In addition, in the test with Monochoria vaginalis, the “Activity level (growth inhibition rate) Monochoria Vaginalis” value is reported as 5 (Level 5: the growth inhibition rate is greater than 85%). The “Activity level (growth inhibition rate) Setaria viridis” value in the test on Setaria viridis was 5 (Level 5: the growth inhibition rate is greater than 85%).
With `COC(=O)C(NC(=O)OC(C)(C)C)SC(=O)C(C)Oc1nc(F)c(Cl)c(N)c1Cl` (stereo not drawn) [Compound 104], the “Activity level (growth inhibition rate) Abutilon theophrasti” value in the test on Abutilon theophrasti is 5 (Level 5: the growth inhibition rate is greater than 85%). Moreover, the “Activity level (growth inhibition rate) Digitaria sanguinalis” value with Digitaria sanguinalis is reported as 5 (Level 5: the growth inhibition rate is greater than 85%). For the same compound, the “Activity level (growth inhibition rate) Galium spurium” value in the test on Galium spurium is 5 (Level 5: the growth inhibition rate is greater than 85%). For the same compound, the “Activity level (growth inhibition rate) Leptochloa chinensis” value in the test on Leptochloa chinensis is reported as 5 (Level 5: the growth inhibition rate is greater than 85%). Further, the “Activity level (growth inhibition rate) Monochoria Vaginalis” value in the test with Monochoria vaginalis is recorded as 5 (Level 5: the growth inhibition rate is greater than 85%). Further, the “Activity level (growth inhibition rate) Setaria viridis” value in the test on Setaria viridis was 5 (Level 5: the growth inhibition rate is greater than 85%).
For `CC(Oc1nc(F)c(Cl)c(N)c1Cl)C(=O)SS(C)(=O)=O` (stereo not drawn) [Compound 105], the “Activity level (growth inhibition rate) Abutilon theophrasti” value in the test with Abutilon theophrasti was 5 (Level 5: the growth inhibition rate is greater than 85%). The “Activity level (growth inhibition rate) Digitaria sanguinalis” value in the test with Digitaria sanguinalis was 5 (Level 5: the growth inhibition rate is greater than 85%). The “Activity level (growth inhibition rate) Galium spurium” value in the test with Galium spurium is 5 (Level 5: the growth inhibition rate is greater than 85%). The “Activity level (growth inhibition rate) Leptochloa chinensis” value in the test with Leptochloa chinensis was 5 (Level 5: the growth inhibition rate is greater than 85%). For the same compound, the “Activity level (growth inhibition rate) Monochoria Vaginalis” value in the test on Monochoria vaginalis was 5 (Level 5: the growth inhibition rate is greater than 85%). Moreover, in the test on Setaria viridis, the “Activity level (growth inhibition rate) Setaria viridis” value is listed as 5 (Level 5: the growth inhibition rate is greater than 85%).
Regarding `CC(Oc1nc(F)c(Cl)c(N)c1Cl)C(=O)SC1CCCO1` (stereo not drawn) [Compound 106], the “Activity level (growth inhibition rate) Abutilon theophrasti” value in the test on Abutilon theophrasti is 5 (Level 5: the growth inhibition rate is greater than 85%). The “Activity level (growth inhibition rate) Digitaria sanguinalis” value in the test with Digitaria sanguinalis is 5 (Level 5: the growth inhibition rate is greater than 85%). Moreover, the “Activity level (growth inhibition rate) Galium spurium” value in the test with Galium spurium is listed as 5 (Level 5: the growth inhibition rate is greater than 85%). For the same compound, the “Activity level (growth inhibition rate) Leptochloa chinensis” value with Leptochloa chinensis was 5 (Level 5: the growth inhibition rate is greater than 85%). Moreover, the “Activity level (growth inhibition rate) Monochoria Vaginalis” value in the test with Monochoria vaginalis is 5 (Level 5: the growth inhibition rate is greater than 85%). Further, the “Activity level (growth inhibition rate) Setaria viridis” value in the test with Setaria viridis is recorded as 5 (Level 5: the growth inhibition rate is greater than 85%).
Regarding `CC(Oc1nc(F)c(Cl)c(N)c1Cl)C(=O)Sc1ccccc1` (stereo not drawn) [Compound 107], in the test with Abutilon theophrasti, the “Activity level (growth inhibition rate) Abutilon theophrasti” value is 5 (Level 5: the growth inhibition rate is greater than 85%). Besides, in the test with Digitaria sanguinalis, the “Activity level (growth inhibition rate) Digitaria sanguinalis” value was 5 (Level 5: the growth inhibition rate is greater than 85%). For the same compound, the “Activity level (growth inhibition rate) Galium spurium” value with Galium spurium is 5 (Level 5: the growth inhibition rate is greater than 85%). Moreover, in the test on Leptochloa chinensis, the “Activity level (growth inhibition rate) Leptochloa chinensis” value is recorded as 5 (Level 5: the growth inhibition rate is greater than 85%). The “Activity level (growth inhibition rate) Monochoria Vaginalis” value with Monochoria vaginalis is 5 (Level 5: the growth inhibition rate is greater than 85%). In the test on Setaria viridis, the “Activity level (growth inhibition rate) Setaria viridis” value was 5 (Level 5: the growth inhibition rate is greater than 85%).
Consider `Cc1ccccc1SC(=O)C(C)Oc1nc(F)c(Cl)c(N)c1Cl` (stereo not drawn) [Compound 108], for which the “Activity level (growth inhibition rate) Abutilon theophrasti” value in the test on Abutilon theophrasti is recorded as 5 (Level 5: the growth inhibition rate is greater than 85%). The “Activity level (growth inhibition rate) Digitaria sanguinalis” value in the test with Digitaria sanguinalis is reported as 5 (Level 5: the growth inhibition rate is greater than 85%). In addition, in the test on Galium spurium, the “Activity level (growth inhibition rate) Galium spurium” value is listed as 5 (Level 5: the growth inhibition rate is greater than 85%). In addition, in the test on Leptochloa chinensis, the “Activity level (growth inhibition rate) Leptochloa chinensis” value was 5 (Level 5: the growth inhibition rate is greater than 85%). For the same compound, the “Activity level (growth inhibition rate) Monochoria Vaginalis” value with Monochoria vaginalis is recorded as 5 (Level 5: the growth inhibition rate is greater than 85%). In addition, the “Activity level (growth inhibition rate) Setaria viridis” value in the test on Setaria viridis is on record as 5 (Level 5: the growth inhibition rate is greater than 85%).
